≈ marks a conversion by molar mass, not a printed value. Where “and” joins values, the source holds several entries; their conditions need not be identical. Identical values can stand only once. Like-named read-outs stand apart in the source and are kept apart here.
Assays:
[1] = Dynamic light scattering, colloidal aggregation; type: physicochemical; details: measured at 10 µM, 1 µM and 100 nM, 25 °C, read-out: DLS maximum soluble concentration at which no aggregates are observed
[2] = molecular target: T1, recombinant human BMX protein (hBMX) (Homo sapiens, UniProt P51813); assay: Differential scanning fluorimetry (DSF); type: binding; details: 100 μM compound; for ΔTm / ΔTm at 100 µM: versus apo-BMX; for Average Tm of BMX with compound: apo-BMX Tm 51.8-52.2 °C; for ΔTm at 100 µM: read-out: ΔTm
T1 construct: Crystallization, data collection, and structure determination of BMX catalytic domain in; made in house; host or cells: Sf-9 insect cells
Procedure: We further characterized the binding interaction between JS24–JS27 and BMX by using differential scanning fluorimetry (DSF) and surface plasmon resonance (SPR). Purified recombinant human BMX protein (hBMX) was first subjected to thermal scanning in the absence and presence of JS24–JS27, and the respective protein melting temperature (Tm) calculated.
Differential Scanning Fluorimetry:
DSF was performed in MicroAmp™ EnduraPlate™ Optical 96 -Well Clear Reaction Plates
with Barcode (Applied Biosystems, Life Technologies, California, USA) using a QuantStudio
7 Flex Real-Time PCR System (Applied Biosystems). Pre-incubation of the protein with the
compound for 2 hours at 4 °C was required prior to DSF experiments. The final reaction mixture
(20 μL of total volume) contained 4 μg of His6-BMX, 4-fold of Protein Thermal Shift™ Dye
(Applied Biosystems) diluted in protein buffer solution, and 100 μM of compound. The
temperatures were obtained by taking the midpoint of each transition.

[3] = pH 6.8
BMX [4] = molecular target: T2, BMX (Homo sapiens, UniProt P51813); assay: BMX biochemical activity assay (HTRF, phosphorylation of a biotinylated peptide); details: for BMX potency loss (fold) against control BMX-IN-1 / BMX potency gain (fold) against BMX-IN-1: relative to the control of the same set of experiments
T2 sequence (P51813 1-675): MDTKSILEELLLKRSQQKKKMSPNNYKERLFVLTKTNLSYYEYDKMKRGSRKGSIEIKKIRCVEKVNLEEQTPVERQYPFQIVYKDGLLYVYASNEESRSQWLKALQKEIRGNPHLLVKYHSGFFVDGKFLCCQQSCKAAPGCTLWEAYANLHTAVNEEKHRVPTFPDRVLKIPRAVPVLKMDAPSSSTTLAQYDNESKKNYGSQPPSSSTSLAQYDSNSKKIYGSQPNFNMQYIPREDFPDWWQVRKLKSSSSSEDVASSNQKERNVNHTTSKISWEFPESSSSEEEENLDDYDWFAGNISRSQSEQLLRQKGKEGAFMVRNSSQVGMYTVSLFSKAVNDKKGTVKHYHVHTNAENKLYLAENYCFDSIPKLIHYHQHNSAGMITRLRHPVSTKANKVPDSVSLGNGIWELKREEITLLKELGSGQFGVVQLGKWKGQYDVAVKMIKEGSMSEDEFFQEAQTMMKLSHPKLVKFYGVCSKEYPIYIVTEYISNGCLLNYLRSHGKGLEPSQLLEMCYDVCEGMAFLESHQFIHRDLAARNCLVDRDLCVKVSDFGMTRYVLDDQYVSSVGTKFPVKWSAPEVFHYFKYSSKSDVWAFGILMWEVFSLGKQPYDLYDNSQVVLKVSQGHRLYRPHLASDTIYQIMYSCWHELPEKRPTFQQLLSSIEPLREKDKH

in vitro = details: PAMPA
His6-hsBMX = molecular target: T3, His6-hsBMX (Homo sapiens, UniProt P51813); assay: Surface plasmon resonance (SPR); type: binding; details: 1:1 Langmuir fit, 25 °C
T3 construct: Crystallization, data collection, and structure determination of BMX catalytic domain in; made in house; host or cells: Sf-9 insect cells
From the text: response upon compound injection (t=0s), or upon washing (t=220s), on immobilized His6-
hsBMX surfaces. Compound concentrations injected on already saturated surfaces were not
included in the 1:1 Langmuir fitting model. X-axis: time (s); y-axis: response (arbitrary units).
Inset plots [x-axis: compound concentration (M); y-axis: response (arbitrary units)] show the
steady-state affinity (KDss) fit for the interactions wherein equilibrium was reached.
Surface Plasmon Resonance:
The kinetic and affinity parameters of protein-compound interaction were evaluated by SPR.
Experiments were carried out in a Biacore 4000 instrument (Biacore AB, GE Healthcare Life
Sciences, Uppsala, Sweden) at 25 °C. His6-BMX protein was diluted to 10 µg/mL in sodium
acetate pH 5.5, in the presence of 5 µM staurosporine and immobilized onto CM5 (Series S)
sensor chips, using the standard amine coupling procedure. Prior to immobilization, the
carboxymethylated surface of the chip was activated with 400 mM 1-ethyl-3-(3-
dimethylaminopropyl)-carbodiimide and 100 mM N-hydroxysuccinimide for 10 min. HBS-N
(10 mM HEPES pH7.4, 150mM NaCl) was used as the background buffer. Protein was coupled
to the surface after 2 to 10 min injection times, at a flow rate of 10 µL/min, in order to reach
1500 to 3500 response units (RU). The remaining activated carboxymethylated groups were
blocked with a 7 min injection of 1 M ethanolamine pH 8.5. Compounds were pre-diluted in
DMSO to 50x the desired highest tested concentration and diluted afterwards in running buffer
(20 mM HEPES pH 7.4, 150 mM NaCl, 1 mM DTT, 0.1 mM EGTA, 0.05 % (v/v) TWEEN-
20, 5 mM MgCl2) in order to reach 2% of DMSO concentration. A DMSO solvent correction
(1% - 3%) was performed to account for variations in bulk signal and to achieve high-quality
data. Each compound was injected over immobilized His6-BMX for 220 s (30 µL min-1;
association phase) followed by 600 to 2000 s of buffer flow (dissociation phase) at a maximum
five times in 2-fold dilution series. All sensorgrams were processed by first subtracting the
binding response recorded from the control surface (reference spot), followed by subtracting
the buffer blank injection from the reaction spot. All datasets were fit to a simple 1:1 Langmuir
interaction model with the provided Biacore 4000 Evaluation software, to determine kinetic rate constants (kon, koff) or steady-state affinity (KDss).

LNCaP cells = assay: LNCaP cell growth assay (CellTiter-Glo, 96 h); type: cell-based; details: Homo sapiens, 96-well plates, mean of three experiments in triplicate, read-out: GI50 LNCaP
BMX [5] = molecular target: T2, BMX; assay: Kinetic characterization with ADP-Glo kinase assay; type: biochemical; design: purchased Promega Corporation (USA) V4512; details: duplicate, mean ± S.D.
From the text: The inactivation of BMX occurs in a two-step process that is governed by two parameters: the affinity of the initial non-covalent binding, KI, and the rate of the subsequent covalent bond-forming reaction with the thiol of the cysteine residue, kinact. […]. […] Thus, taking into account that all the analogues have the same Michael acceptor moiety, the enhanced activity must be a result of the structural modifications introduced in the scaffold. […]
Kinetic characterization using an ADP-GLOTM kinase assay:
The BMX enzyme system (Catalog. V4512) and the ADP-GloTM kinase assay were purchased from Promega Corporation (USA). In each kinase reaction, the concentration of BMX was set to 4.5 ng/µL. The peptide substrate Poly (4:1 Glu, Tyr) and ATP concentrations were set to 0.25 mg/mL and 50 µM, respectively. BMX was pre-incubated with different inhibitor concentrations (10-fold serial dilutions, starting at 1 mM), over different time periods (2 - 60 min), before initiating the kinase reactions. Reactions were started by adding 2.5X Poly E4Y1/ATP mixture. The reactions were carried out in a 384-well plate, stopping all at the same time with the addition of 5 µL of ADP-GloTM reagent, to consume the remaining ATP within 40 min. Then, 10 µL of kinase detection reagent was added into the wells and incubated for 30 min to produce a luminescence signal. The signal was measured using an Infinite M200 […]
observed rate constants for inhibition (kobs), at different inhibitor concentrations, were determined from the slope of a semi-logarithmic plot of inhibition versus time, and re-plotted against inhibitor concentration (nM). The experimental values were fitted into a hyperbolic function using GraphPad Prism 8 ([…]), to obtain the KI, kinact, and kinact/KI, as described previously.12 […]
(Thermo Fisher Scientific) using gold-coated glass needles. […]

BTK = BTK (Homo sapiens, UniProt Q06187); assay: BTK biochemical activity assay (radiometric, KinaseProfiler); design: purchased Eurofins DiscoverX KinaseProfiler (contract assay)
Chain of BTK (Q06187 whole entry, species assumed): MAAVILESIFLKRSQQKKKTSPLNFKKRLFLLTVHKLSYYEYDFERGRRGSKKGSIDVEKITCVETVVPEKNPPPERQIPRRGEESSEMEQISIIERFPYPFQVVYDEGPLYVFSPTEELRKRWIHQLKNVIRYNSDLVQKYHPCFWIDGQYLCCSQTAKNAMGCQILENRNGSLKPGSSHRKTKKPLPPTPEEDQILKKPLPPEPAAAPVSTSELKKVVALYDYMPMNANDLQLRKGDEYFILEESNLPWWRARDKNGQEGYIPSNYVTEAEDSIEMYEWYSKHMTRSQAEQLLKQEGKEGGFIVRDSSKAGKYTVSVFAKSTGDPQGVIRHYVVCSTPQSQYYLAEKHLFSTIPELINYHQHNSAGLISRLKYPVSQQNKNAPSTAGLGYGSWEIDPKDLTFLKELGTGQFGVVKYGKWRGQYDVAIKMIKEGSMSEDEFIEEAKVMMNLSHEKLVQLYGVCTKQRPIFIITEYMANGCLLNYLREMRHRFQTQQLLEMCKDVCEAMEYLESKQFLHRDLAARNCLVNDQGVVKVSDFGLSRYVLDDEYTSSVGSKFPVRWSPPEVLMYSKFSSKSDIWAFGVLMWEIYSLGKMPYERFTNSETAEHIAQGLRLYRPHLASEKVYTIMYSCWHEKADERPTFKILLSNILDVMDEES

[6] = Experiment 1 of Fig. S3, control JS9A (in-house BMX-IN-1), read-out: BMX IC50
[7] = deionized and filtered water (0.1% DMSO), kinetic from dmso stock
[8] = pH 6.8, PAMPA/Pe effective permeability
[9] = Experiment 2 of Fig. S3, control commercial BMX-IN-1, read-out: BMX IC50
[10] = Experiment 3 of Fig. S3, control commercial BMX-IN-1, read-out: BMX IC50

SMILES | solubility ([1]; water) | ΔTm [2] | Average Tm of BMX with compound [2] | PAMPA/%R membrane retention [3] | PAMPA/Pe effective permeability [3] | IC50 (BMX [4]; [9]) | further results
Cc1ccc(-n2c(=O)ccc3cnc4ccc(-c5ccc(NS(C)(=O)=O)cc5)cc4c32)cc1NCC=CC#N (mixture of isomers) [JS12] | 0.1 µM | 0.13±0.06 °C | 52.05±0.06 °C | 39±2% | 45±3 x10-6 cm/sec | – | –
COC(=O)C=CCNc1cc(-n2c(=O)ccc3cnc4ccc(-c5ccc(NS(C)(=O)=O)cc5)cc4c32)ccc1C (mixture of isomers) [JS13] | 0.1 µM | 0.52±0.06 °C | 52.44±0.06 °C | 30±16% | 45±9 x10-6 cm/sec | – | –
C=CC(=O)Nc1cc(C)cc(-n2c(=O)ccc3cnc4ccc(-c5ccc(NS(C)(=O)=O)cc5)cc4c32)c1 [JS9B, N-(3-methyl-5-(9-(4-(methylsulfonamido)phenyl)-2-oxobenzo[h][1,6]naphthyridin-1(2H)-yl)phenyl)acrylamide] | – | – | 59.68±0.11 °C | 35±7% | – | – | IC50 (BMX [4]; [6]): 0.24 ± 0.025 µM; solubility [1, 7]: < 0.1 µM; ΔTm at 100 µM [2]: 7.75 ± 0.11 °C; Papp (in vitro; [8]): 71 ± 23 nm/s
C=CC(=O)Nc1ccc(C)c(-n2c(=O)ccc3cnc4ccc(-c5ccc(NS(C)(=O)=O)cc5)cc4c32)c1 [JS9C, N-(4-methyl-3-(9-(4-(methylsulfonamido)phenyl)-2-oxobenzo[h][1,6]naphthyridin-1(2H)-yl)phenyl)acrylamide] | – | – | 54.12±0.06 °C | 51±6% | – | – | IC50 (BMX [4]; [6]): 6.9 ± 2.92 µM; BMX potency loss (fold) against control BMX-IN-1 (BMX [4]): abolishes target inhibition; solubility [1, 7]: 1 µM (≈ 0.525 µg/mL); ΔTm at 100 µM [2]: 2.2 ± 0.06 °C; Papp (in vitro; [8]): 110 ± 10 nm/s
C=CC(=O)Nc1cccc(-n2c(=O)ccc3cnc4ccc(-c5ccc(NS(C)(=O)=O)cc5)cc4c32)c1 [JS9D] | 1 µM (≈ 0.511 µg/mL) | 7.74±0.01 °C | 59.66±0.01 °C | 48±3% | 11±1 x10-6 cm/sec | – | IC50 (BMX [4]; [6]): 0.059 ± 0.005 µM; BMX potency gain (fold) against BMX-IN-1 (BMX [4]): 6 fold
C=CC(=O)Nc1cc(-n2c(=O)ccc3cnc4ccc(-c5ccc(NS(C)(=O)=O)cc5)cc4c32)ccc1OC [JS9E] | 1 µM (≈ 0.541 µg/mL) | 6.05±0.01 °C | 57.97±0.01 °C | 55±8% | 40±5 x10-6 cm/sec | – | IC50 (BMX [4]; [6]): 1.3 ± 0.206 µM; BMX potency loss (fold) against control BMX-IN-1 (BMX [4]): 4 fold
C=CC(=O)Nc1cc(-n2c(=O)ccc3cnc4ccc(-c5ccc(NS(=O)(=O)CCCC)cc5)cc4c32)ccc1C [JS14] | 0.1 µM (≈ 0.0567 µg/mL) | 7.61±0.11 °C | 59.53±0.11 °C | – | Und | 0.89 ± 0.027 µM | –
C=CC(=O)Nc1cc(-n2c(=O)ccc3cnc4ccc(-c5cccc(NS(C)(=O)=O)c5)cc4c32)ccc1C [JS15] | 1 µM (≈ 0.525 µg/mL) | 8.79±0.28 °C | 60.72±0.28 °C | 17±24% | 30±18 x10-6 cm/sec | – | IC50 (BMX [4]; [10]): 0.119 ± 0.0114 µM
C=CC(=O)Nc1cc(-n2c(=O)ccc3cnc4ccc(-c5ccncc5)cc4c32)ccc1C [JS17] | – | 7.62±0.01 °C | 59.55±0.01 °C | 10±3% | 24±1 x10-6 cm/sec | 0.045 ± 0.01 µM | –
C=CC(=O)Nc1cc(-n2c(=O)ccc3cnc4ccc(-c5ccc(C#N)nc5)cc4c32)ccc1C [JS18] | < 0.1 µM | 7.49±0.11 °C | 59.42±0.11 °C | 18±5% | 24±2 x10-6 cm/sec | 0.14 ± 0.012 µM | –
C=CC(=O)Nc1cc(-n2c(=O)ccc3cnc4ccc(-c5ccc(C(F)(F)F)nc5)cc4c32)ccc1C [JS19] | < 0.1 µM | – | 58.64±0.13 °C | – | Und | 0.47 ± 0.179 µM | –
C=CC(=O)Nc1cc(-n2c(=O)ccc3cnc4ccc(N5CCCCC5)cc4c32)ccc1C [JS20] | – | 7.36±0.11 °C | 59.29±0.11 °C | 18±1% | 30±2 x10-6 cm/sec | 0.042 ± 0.013 µM | –
C=CC(=O)Nc1cc(-n2c(=O)ccc3cnc4ccc(N5CCOCC5)cc4c32)ccc1C [JS21] | – | 8.57±0.06 °C | 60.50±0.06 °C | 19±3% | 22±1 x10-6 cm/sec | 0.043 ± 0.005 µM | –
C=CC(=O)Nc1cc(-n2c(=O)ccc3cnc4ccc(N5CCN(S(C)(=O)=O)CC5)cc4c32)ccc1C [JS22] | – | 8.79±0.21 °C | 60.72±0.21 °C | 19±6% | 18±1 x10-6 cm/sec | – | IC50 (BMX [4]; [10]): 0.0938 ± 0.00087 µM
C=CC(=O)Nc1cc(-n2c(=O)ccc3cnc4ccc(N5CCC(N(C)C)CC5)cc4c32)ccc1C [JS23] | – | 8.66±0.11 °C | 60.59±0.11 °C | 39±5% | 2.2±0.2 x10-6 cm/sec | 0.041 ± 0.006 µM | –
C=CC(=O)Nc1cccc(-n2c(=O)ccc3cnc4cc(N5CCN(S(C)(=O)=O)CC5)ccc4c32)c1 [JS27] | – | – | 62.94±0.06 °C | 42±14% | – | – | IC50 (BMX [4]; Experiment 4 of Fig. S3 = Fig. 1b, duplicate, mean ± S.D., read-out: BMX inhibition IC50): 0.0137 µM; LE (BMX) (BMX [4]; ligand efficiency): 0.30; LipE (BMX) (BMX [4]; lipophilic efficiency): 5.54; BMX potency gain (fold) against BMX-IN-1 (BMX [4]): ≈ 4 fold; solubility [1, 7]: ≥ 10 µM; ΔTm at 100 µM [2]: 10.81 ± 0.06 °C; koff (His6-hsBMX): < 0.0001 s⁻¹; kon (His6-hsBMX): 99000 M⁻¹ s⁻¹; GI50 (LNCaP cells): 9.3 µM; Papp (in vitro; pH 6.8, PAMPA permeability): 120 nm/s; Papp (in vitro; [8]): 120 ± 20 nm/s; k inact (BMX [5]): 0.166 min⁻¹ and 0.166 ± 0.003 min⁻¹; BTK potency gain (fold) relative to BMX-IN-1 (BTK): 15 fold; IC50 (BTK; duplicate, mean ± S.D., read-out: BTK inhibition IC50): 0.0243 ± 0.0003 µM; LE (BTK) (BTK; ligand efficiency): 0.29; LipE (BTK) (BTK; lipophilic efficiency): 5.29
C=CC(=O)Nc1cc(-n2c(=O)ccc3cnc4ccc(Br)cc4c32)ccc1C [JS29] | – | – | – | 1±1% | 32±4 x10-6 cm/sec | 0.044 ± 0.002 µM | –

— publication PMC8341910, “Structural and biophysical insights into the mode of covalent binding of rationally designed potent BMX inhibitors” (RSC Chemical Biology, 2020)
